# Patent US8748575B2, “Therapeutic peptides” (Combimab, Inc., priority 2010, dated 2014)
# Residues, ends and D or L forms follow the SMILES beside them.
# Key:
# [1] = target: T1, GC-C (Mus musculus, UniProt Q3UWA6); assay: Intestinal membrane 125I-STa competitive radioligand binding assay; set-up: key to I-125 binding assay: 1+ (lowest activity/potency); ++: Results are graded from 1+ (lowest activity/potency) to 5+ (highest activity/potency); +++: Results are graded from 1+ (lowest activity/potency) to 5+ (highest activity/potency); ++++: Results are graded from 1+ (lowest activity/potency) to 5+ (highest activity/potency); +++++: 5+ (highest activity/potency); settings: graded activity/potency, mouse intestinal membranes
# T1 construct: freshly prepared mouse intestine membranes; from tissue; host or cells: mouse intestine (membrane preparation)
# T1 sequence (Q3UWA6 20-1072): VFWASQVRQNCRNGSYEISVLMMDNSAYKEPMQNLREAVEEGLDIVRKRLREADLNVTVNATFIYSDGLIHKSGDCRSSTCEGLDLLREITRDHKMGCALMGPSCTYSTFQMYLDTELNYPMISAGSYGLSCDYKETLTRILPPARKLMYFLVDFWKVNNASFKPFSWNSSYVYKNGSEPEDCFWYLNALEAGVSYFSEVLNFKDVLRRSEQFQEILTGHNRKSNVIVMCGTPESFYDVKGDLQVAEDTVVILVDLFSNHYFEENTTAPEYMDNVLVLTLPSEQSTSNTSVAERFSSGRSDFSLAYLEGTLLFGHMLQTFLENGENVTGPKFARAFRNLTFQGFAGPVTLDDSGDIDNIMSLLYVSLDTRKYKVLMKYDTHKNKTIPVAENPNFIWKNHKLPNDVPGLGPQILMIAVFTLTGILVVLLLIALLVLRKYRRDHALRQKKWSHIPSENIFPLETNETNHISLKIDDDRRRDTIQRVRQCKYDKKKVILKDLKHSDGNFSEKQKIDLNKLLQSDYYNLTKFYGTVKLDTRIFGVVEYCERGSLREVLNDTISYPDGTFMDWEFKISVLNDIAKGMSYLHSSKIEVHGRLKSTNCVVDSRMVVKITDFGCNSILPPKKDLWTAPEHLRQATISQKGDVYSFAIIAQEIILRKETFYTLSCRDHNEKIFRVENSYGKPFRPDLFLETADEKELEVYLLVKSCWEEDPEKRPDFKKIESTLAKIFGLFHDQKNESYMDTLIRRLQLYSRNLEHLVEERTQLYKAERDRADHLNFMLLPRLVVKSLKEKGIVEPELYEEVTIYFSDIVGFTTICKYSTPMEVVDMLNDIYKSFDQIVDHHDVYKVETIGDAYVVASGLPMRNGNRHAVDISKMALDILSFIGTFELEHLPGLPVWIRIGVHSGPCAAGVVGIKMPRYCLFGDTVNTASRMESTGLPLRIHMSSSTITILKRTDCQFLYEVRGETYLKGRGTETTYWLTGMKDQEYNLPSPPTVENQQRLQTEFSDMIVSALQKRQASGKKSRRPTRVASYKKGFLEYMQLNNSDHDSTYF
# Method: Intestinal membrane 1-125 labeled radioligand binding assay. The intestinal membrane radioligand binding assay was used to assess whether a novel compound could displace ^125I-STa from GC-C (Crane et al., 1992). Each analog was analyzed for its ability to displace ^125I-STa from GC-C in a competitive binding assay. ^125I-ST Displaced” was determined by co-incubating STa analogs (10 μM) with 50,000 DPM of ^125I-STa (1-18) in the presence of mouse intestinal membranes. The displacement (n=3) for each analog was determined relative to a vehicle control.
# Membranes were prepared from freshly harvested mouse intestines by first washing away the blood or feces with ice-cold Dulbecco's PBS. Washed organs were minced with a single-edged razor blade, followed by homogenization on ice in 50 mM Tris, pH 7.6, containing 1 mM EDTA, 1 mM PMSF, 1 mM DTT. Debris was then removed by a 15 minute centrifugation at 3,000×G and 4° C. The supernatant is then passed through successively smaller needles (18 gauge through 25 gauge) and frozen at −70° C. until used as a tissue homogenate. If intended for use as isolated membranes, the above homogenate was centrifuged (100,000×G) at 4° C. for 1 hour while fresh and the pellet was re-suspended in homogenization buffer.
# The assay was performed in 96 well filter plates which were pre-incubated overnight with 200 μl of 0.3% polyethylenimine (w/v) and washed three times by aspiration with 300 μl of Wash Buffer (150 mM NaCl, 20 mM Sodium Phosphate pH=7.2, 1 mM EDTA) immediately before use. Into each well of was added 50 μl of 3× Binding buffer (150 mM Tris-HCl pH=7.6, 1.98 mM Cysteamine, 0.3% Bacitracin, 1350 mM NaCl, 3 mM EDTA), 40 μl of double-distilled water, 10 μl of either double-distilled water or cold ligand (50 uM STa (5-18) in double-distilled water), 10 μl of increasing concentrations (125 DPM/ul to 50,000 DPM/ul) of radiolabeled 125I -STa (1-18) and finally 40 μl (approximately 2 mg protein/ml) of freshly prepared mouse intestine membranes. The plates were then incubated with mixing at 37 C for two hr, washed successively with six 200 μl aliquots of Wash Buffer and aspirated to dryness. The filter bottoms of each well were punched into individual borosilicate tubes and bound radioactivity determined in a gamma counter. Protein content was determined on an aliquot of the mouse intestine membranes used in the Biorad Protein Assay.
# [2] = Stability in rat intestinal fluid (Kessler 2008, 2009); format: in vitro ADME; settings: ileal vs duodenal fluid
# Method: According to the present invention, there are additional reasons why the distal jejunum, ileum, cecum and proximal colon are the preferred targets for a GCCR agonist. […] ST peptides are stable in the stomach but are rapidly degraded in the upper intestine. […] However, linaclotide is degraded rapidly in the duodenum. In intestinal fluids from both mouse, rat and humans the peptide loses its C-terminal tyrosine and forms an active metabolite. The half life for linaclotide is 3 minutes in rat intestinal fluid and 1 minute in human intestinal fluid. This metabolite is also rapidly degraded, first by reductases and then by proteases. The half life for the metabolite is about 5 minutes in rat intestinal fluid, and 3 minutes in human intestinal fluid. It is not detectable after 60 minutes in rat intestinal fluid, and after 18 minutes in human intestinal fluid (Kessler et al., 2009; Kessler et al., 2008). Thus, if released in the stomach or duodenum, an ST peptide analogue such as linaclotide will be active only in the duodenum. It is likely that an uroguanylin analogue such as plecanatide is degraded even more rapidly and therefore has an even shorter activity time.
# This correlates with the free thiol concentrations in these locations and the activity of the Glutathione Reductase/Glutareduxin system activities in these locations.
# [3] = test system: GCC; settings: GCC expressed in the jejunum and cecum of the calf; cited from earlier work
Compound,I-125 binding assay [1],more stable in ileal intestinal fluid compared to the duodenum [2],decrease in the affinity for its receptor [3] [log]
"C[C@@H]1NC(=O)[C@@H]2CCCN2C(=O)[C@H](CC(N)=O)NC(=O)[C@@H]2CSSC[C@H](N)C(=O)N[C@H]3CSSC[C@H](NC1=O)C(=O)N[C@@H]([C@@H](C)O)C(=O)NCC(=O)N[C@H](C(=O)N[C@@H](Cc1ccc(O)cc1)C(=O)O)CSSC[C@H](NC(=O)[C@H](Cc1ccc(O)cc1)NC(=O)[C@H](CCC(=O)O)NC3=O)C(=O)N2 [Linaclotide, H2N Cys Cys Glu Tyr Cys Cys Asn Pro Ala Cys Thr Gly Cys Tyr COOH] (HELM PEPTIDE1{C.C.E.Y.C.C.N.P.A.C.T.G.C.Y}$PEPTIDE1,PEPTIDE1,1:R3-6:R3|PEPTIDE1,PEPTIDE1,2:R3-10:R3|PEPTIDE1,PEPTIDE1,5:R3-13:R3$$$V2.0)",+++,up to 100 ×,
H2N Asn Thr Phe Tyr Cys Cys Glu Leu Cys Cys Asn Pro Ala Cys Ala Gly Cys Tyr COOH [STa(1-18)],+++,,2
